Source: PubChem BioAssay AID1963437 (Molecular Pharmacology Branch, DTP, NCI, 2024)
pIC50: −log10 of the molar value.

Tested on: OVCAR-8 complex spheroid, growth inhibition
Test: Anticancer human tumor OVCAR-8 cell line growth inhibition [Asc];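 further: spheroids exposed to agents for 7 days before readout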;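 on viability, T/C: percent viability relative to DMSO vehicle wells taken as 100%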
Settings: for pIC50: curve of first compound; for viability, T/C: stronger effect = lower value
Method: Multicellular complex tumor spheroid response to apoptosis pathway targeting inhibitors Alrizomadlin, Pelcitoclax, and Dasminapant in combination with a variety of drugs and investigational agents in selected tumor cell lines
The MDM2 inhibitor alrizomadlin, the Bcl-2/Bcl-xL inhibitor pelcitoclax, and the IAPs inhibitor dasminapant were evaluated both individually and in combination with standard of care and investigational anticancer small molecules within a complex spheroid model of solid tumors. . Complex spheroids include a stromal component modeled by human endothelial cells (HUVEC) and fibroblasts modeled by human mesenchymal stem cells (MSCs). The concentration ranges selected for each drug and investigational agent were based upon clinically achievable concentrations if the clinical Cmax of the agent was known.
Compounds. The drugs and investigational agents: alrizomadlin (APG-115; NSC831270), pelcitoclax (APG-1252; NSC835773), dasminapant (APG-1387;NSC834197), TAK-243 (NSC785004), copanlisib (NSC809693), olaparib (NSC753686), talazoparib (NSC767125), cobimetinib (NSC 768068), eltanexor (KPT-8602, NSC 794443), abemaciclib (NSC 768073), sotorasib (NSC818433), adagrasib (NSC 831453), MRTX-1133 (NSC 836407), Iadademestat (ORY1001, NSC 806812), and RMC-4630 (NSC839698), were obtained from the NCI Developmental Therapeutics Program Chemical Repository. The FDA-approved anticancer drug set is available from the Developmental Therapeutics Program at https://dtp.cancer.gov/organization/dscb/obtaining/available plates.htm. […] The stock solutions were prepared in dimethyl sulfoxide (DMSO, Sigma-Aldrich, St. Louis, MO, cat. D2650) at 800-fold the tested concentration and stored at -70 degrees C prior to their use. All drugs and investigational agents were tested over a range starting from a high concentration at or near the clinical Cmax and decreasing in half-log increments. If the clinical Cmax for an agent had not been determined, the highest concentration tested was 10 microM.
The patient-derived cancer (PDC) cell lines include five colon adenocarcinomas: 186277-243-T-J2-PDC, 616215-338-R-J1-PDC, 439559-082-T-J2-PDC, 463943-066-T-J2-PDC, and 519858-162-T-J1-PDC; three pancreatic carcinomas: 323965-272-R-J2-PDC, 521955-158-R6-J3-PDC, and 521955-158-R2-J5-PDC; two uterine sarcomas: 327498-152-R-J2-PDC and 993429-296-R-J1-PDC; two rhabdomyosarcomas: 755483-174-R-J1-PDC and 772245-204-R-J1-PDC; two soft tissue sarcomas: 126254-015-R-J1-PDC and 494315-158-R-J1-PDC; two malignant fibrous histiocytomas: 317291-083-R-J1-PDC and 596521-263-R-J1-PDC; two breast carcinomas: 171881-019-R-J1-PDC and 885512-296-R-J2-PDC; and one ovarian carcinoma: 6556581-035-R-J-PDC were obtained from the NCI PDMR, (https://pdmr.cancer.gov). The established cell lines HSSY-2 synovial sarcoma (RRID:CVCL 8719), SYO-1 synovial sarcoma (RRID:CVCL_7146), MPNST malignant peripheral neural sheath tumor were obtained from the Sloan Kettering Institute. The following established cell lines were purchased from the American Type Culture Collection (ATCC, Manassas, VA), Sor the received from the NCI repository:, PANC-1 pancreatic carcinoma (CRL-1469, RRID:CVCL_0480), OVCAR-5 ovarian carcinoma (RRID:CVCL_1628), OVCAR-8 ovarian carcinoma (RRID:CVCL_1629), , MCF-7 breast carcinoma (CRL-12584, RRID:CVCL_0031), MDA-MB-231 breast carcinoma (CRL-12532, RRID:CVCL_0062), NCI-H1876 small cell lung carcinoma (CRL-5902, RRID:CVCL_1503), NCI-H510A small cell lung carcinoma (HTB-184, RRID:CVCL_1565), NCI-H1417 (CRL-5869, RRID:CVCL_1469), and NCI-H196 small cell lung carcinoma (CRL-5823, RRID:CVCL_1509). Dr. Peter Houghton (Greehey Children's Cancer Research Institute, University of Texas Health Science Center, San Antonio, TX) provided Rh-18 rhabdomyosarcoma (RRID:CVCL_1659). Pooled donor human umbilical vein endothelial cells (HUVEC, Lonza, cat. CC-2519) and human mesenchymal stem cells (hMSC, Lonza, cat. PT-2501) were purchased from Lonza (Walkersville, MD).
Cell Culture. […]

Work on `COc1c(OCCCN2CCOCC2)ccc2c3n(c(=NC(=O)c4cnc(N)nc4)nc12)CCN3` + CCN1C(C(=O)NC23CCC(C(=O)O)(CC2)CC3)C(c2cccc(Cl)c2F)C2(C(=O)Nc3cc(Cl)ccc32)C12CCCCC2 yielded a pIC50 (second compound 0.00949 µM) of under 6.00, a pIC50 (second compound 0.03 µM) of under 6.00 and a pIC50 (second compound 0.0949 µM) of under 6.00. The pIC50 (second compound 0.3 µM) was under 6.00, the pIC50 (second compound 0.949 µM) was under 6.00 and the pIC50 (second compound 3 µM) was under 6.00. It also gave a viability, T/C (second compound 0.00949 µM, first compound 0.00316 µM) of 94.7%, a viability, T/C (second compound 0.00949 µM, first compound 0.01 µM) of 92.2% and a viability, T/C (second compound 0.00949 µM, first compound 0.0316 µM) of 113%. The viability, T/C (second compound 0.00949 µM, first compound 0.1 µM) was 170%, the viability, T/C (second compound 0.00949 µM, first compound 0.316 µM) was 140% and the viability, T/C (second compound 0.00949 µM, first compound 1 µM) was 97.1%. For the same compound, the viability, T/C (second compound 0.03 µM, first compound 0.00316 µM) was 81.5%, the viability, T/C (second compound 0.03 µM, first compound 0.01 µM) was 101% and the viability, T/C (second compound 0.03 µM, first compound 0.0316 µM) was 121%. The viability, T/C (second compound 0.03 µM, first compound 0.1 µM) was 134%, the viability, T/C (second compound 0.03 µM, first compound 0.316 µM) was 133% and the viability, T/C (second compound 0.03 µM, first compound 1 µM) was 91.2%. It also gave a viability, T/C (second compound 0.0949 µM, first compound 0.00316 µM) of 104%, a viability, T/C (second compound 0.0949 µM, first compound 0.01 µM) of 99% and a viability, T/C (second compound 0.0949 µM, first compound 0.0316 µM) of 117%. The viability, T/C (second compound 0.0949 µM, first compound 0.1 µM) was 165%, the viability, T/C (second compound 0.0949 µM, first compound 0.316 µM) was 154% and the viability, T/C (second compound 0.0949 µM, first compound 1 µM) was 92.4%. The viability, T/C (second compound 0.3 µM, first compound 0.00316 µM) was 103%, the viability, T/C (second compound 0.3 µM, first compound 0.01 µM) was 103% and the viability, T/C (second compound 0.3 µM, first compound 0.0316 µM) was 108%. It also gave a viability, T/C (second compound 0.3 µM, first compound 0.1 µM) of 153%, a viability, T/C (second compound 0.3 µM, first compound 0.316 µM) of 133% and a viability, T/C (second compound 0.3 µM, first compound 1 µM) of 80%. It also gave a viability, T/C (second compound 0.949 µM, first compound 0.00316 µM) of 93.9%, a viability, T/C (second compound 0.949 µM, first compound 0.01 µM) of 89.8% and a viability, T/C (second compound 0.949 µM, first compound 0.0316 µM) of 146%. It also gave a viability, T/C (second compound 0.949 µM, first compound 0.1 µM) of 172%, a viability, T/C (second compound 0.949 µM, first compound 0.316 µM) of 144% and a viability, T/C (second compound 0.949 µM, first compound 1 µM) of 80.9%. The viability, T/C (second compound 3 µM, first compound 0.00316 µM) was 111%, the viability, T/C (second compound 3 µM, first compound 0.01 µM) was 115% and the viability, T/C (second compound 3 µM, first compound 0.0316 µM) was 133%. For the same compound, the viability, T/C (second compound 3 µM, first compound 0.1 µM) was 153%, the viability, T/C (second compound 3 µM, first compound 0.316 µM) was 126% and the viability, T/C (second compound 3 µM, first compound 1 µM) was 90.2%.
Compound `NC(=O)C(=Cn1cnc(-c2cc(C(F)(F)F)cc(C(F)(F)F)c2)n1)c1cncnc1` + CCN1C(C(=O)NC23CCC(C(=O)O)(CC2)CC3)C(c2cccc(Cl)c2F)C2(C(=O)Nc3cc(Cl)ccc32)C12CCCCC2 has a pIC50 (second compound 0.00949 µM) of under 6.52, a pIC50 (second compound 0.03 µM) of under 6.52 and a pIC50 (second compound 0.0949 µM) of under 6.52. It also gave a pIC50 (second compound 0.3 µM) of under 6.52, a pIC50 (second compound 0.949 µM) of under 6.52 and a pIC50 (second compound 3 µM) of under 6.52. The viability, T/C (second compound 0.00949 µM, first compound 0.000949 µM) was 98.7%, the viability, T/C (second compound 0.00949 µM, first compound 0.003 µM) was 100% and the viability, T/C (second compound 0.00949 µM, first compound 0.00949 µM) was 106%. For the same compound, the viability, T/C (second compound 0.00949 µM, first compound 0.03 µM) was 102%, the viability, T/C (second compound 0.00949 µM, first compound 0.0949 µM) was 81.8% and the viability, T/C (second compound 0.00949 µM, first compound 0.3 µM) was 66.3%. The viability, T/C (second compound 0.03 µM, first compound 0.000949 µM) was 96.5%, the viability, T/C (second compound 0.03 µM, first compound 0.003 µM) was 90.1% and the viability, T/C (second compound 0.03 µM, first compound 0.00949 µM) was 111%. It also gave a viability, T/C (second compound 0.03 µM, first compound 0.03 µM) of 89.5%, a viability, T/C (second compound 0.03 µM, first compound 0.0949 µM) of 82.5% and a viability, T/C (second compound 0.03 µM, first compound 0.3 µM) of 66.9%. For the same compound, the viability, T/C (second compound 0.0949 µM, first compound 0.000949 µM) was 88.9%, the viability, T/C (second compound 0.0949 µM, first compound 0.003 µM) was 102% and the viability, T/C (second compound 0.0949 µM, first compound 0.00949 µM) was 102%. For the same compound, the viability, T/C (second compound 0.0949 µM, first compound 0.03 µM) was 105%, the viability, T/C (second compound 0.0949 µM, first compound 0.0949 µM) was 80.3% and the viability, T/C (second compound 0.0949 µM, first compound 0.3 µM) was 65.9%. The viability, T/C (second compound 0.3 µM, first compound 0.000949 µM) was 93.2%, the viability, T/C (second compound 0.3 µM, first compound 0.003 µM) was 85.1% and the viability, T/C (second compound 0.3 µM, first compound 0.00949 µM) was 94%. For the same compound, the viability, T/C (second compound 0.3 µM, first compound 0.03 µM) was 101%, the viability, T/C (second compound 0.3 µM, first compound 0.0949 µM) was 81% and the viability, T/C (second compound 0.3 µM, first compound 0.3 µM) was 68.7%. For the same compound, the viability, T/C (second compound 0.949 µM, first compound 0.000949 µM) was 88.1%, the viability, T/C (second compound 0.949 µM, first compound 0.003 µM) was 103% and the viability, T/C (second compound 0.949 µM, first compound 0.00949 µM) was 102%. It also gave a viability, T/C (second compound 0.949 µM, first compound 0.03 µM) of 122%, a viability, T/C (second compound 0.949 µM, first compound 0.0949 µM) of 73.4% and a viability, T/C (second compound 0.949 µM, first compound 0.3 µM) of 60%. For the same compound, the viability, T/C (second compound 3 µM, first compound 0.000949 µM) was 116%, the viability, T/C (second compound 3 µM, first compound 0.003 µM) was 109% and the viability, T/C (second compound 3 µM, first compound 0.00949 µM) was 112%. For the same compound, the viability, T/C (second compound 3 µM, first compound 0.03 µM) was 115%, the viability, T/C (second compound 3 µM, first compound 0.0949 µM) was 80.5% and the viability, T/C (second compound 3 µM, first compound 0.3 µM) was 59.8%.
